Experimental data from patent publication US10512656B2, “Compositions and methods for the treatment of lysosomal storage disorders and disorders characterized by lysosomal dysfunction” (Baylor College of Medicine, priority 2016, dated 2019).

What was measured:
TFEB = TFEB nuclear translocation in HeLa/TFEB cells; format: cell-based, human
Description: Control (Coriell Institute, USA) and JNCL fibroblasts (Gaslini Institute, Italy) were grown in DMEM (1:1, HyClone) supplemented with 10% heat-inactivated fetal bovine serum (FBS, Atlanta Biologicals), 2 mM L-glutamine, 100 U/ml penicillin and […] streptomycin (Invitrogen). HeLa cells were incubated for 2 h with LY294002 ([…], Cell Signaling), Torin 1 (300 nM, Cayman Chemical) or for 24 h with trehalose (100 mM, Sigma), rapamycin (300 nM, Sigma), MK2206 (1 μM, Selleckchem), U0126 ([…], Tocris) and dialyzed serum (GE Healthcare Life Sciences) for 30 min. For immunofluorescence assay, cells were grown on coverslips in 24-well plates. After the treatment, cells were washed with PBS and fixed with methanol for 10 min. Cells were then blocked with blocking reagent (0.1% saponin, 10% bovine serum in PBS) for 1 h and incubated with appropriate primary antibody(s) (1:100) for 3 h at room temperature. After three washes with PBS, the cells were incubated with appropriate secondary antibodies (1:500) for 1 h at room temperature. Coverslips were then mounted with vectashield containing 4,6-diamidino-2-phenylindole (H-1200) for imaging via confocal microscopy. Cell pellets were resuspended in lysis buffer (10 mM Hepes pH 7.9, 10 mM KCl, 0.1 mM EDTA and 0.4% Nonidet P40) with inhibitors by pipetting and kept in ice for 30 min. After 1 min of spin at full speed, the supernatant was collected as cytosolic fraction. The pellet was washed twice with lysis buffer and resuspended with nuclear buffer (20 mM Hepes pH 7.9, 0.4M NaCl and 1 mM EDTA) containing phosphatases and proteases inhibitors. After 15 min of vigorous shaking on an Eppendorf shaker, the pellet was spun down at full speed for 10 min. The supernatant was used as the nuclear fraction.

[1] = system: lysosomal and autophagy genes; test: Expression analysis of whole brain homogenates; format: in vivo, mouse
Description: Total RNA was extracted from the control and JNCL fibroblasts and from WT and Cln3^Δex7-8 cortical neuron cultures using the RNEasy kit (Qiagen) according to the manufacturer's instructions. Half of the mouse brain was processed for the RNA extraction and one microgram was used for complementary DNA synthesis by QuantiTect Reverse Transcription kit (Qiagen). The primers for PCR with reverse transcription reactions are listed in Table St Quantitative real-time PCR was performed by using iQ SYBR Green Supermix on the CFX96 Touch Real-Time Detection System (Bio-Rad Laboratories). Samples were heated for 3 min at 95° C. and amplified in 39 cycles for 11 s at 95° C., 45 s at 60° C. with last cycle of 10 s at 95° C., 5 s at 65° C. and 5 s at 95° C. Analyses were conducted using CFX manager software (Bio-Rad) and the threshold cycle (CT) was extracted from the PCR amplification plot. Relative gene expression was determined using the ΔΔCT method, normalizing to GAPDH (for human genes) and cyclophilin (for mouse genes). The change in messenger RNA level of the genes was expressed in fold change as previously described. Error bars represent s.e.m. *P<0.05, **P<0.01, ***P<0.001.
Mice were injected intraperitoneally with MK2206 (120 mg/kg) for four times every other day. MK2206 was formulated in 30% captisol in water. […]

HeLa cells = test: Autophagy in HeLa cells (LC3 puncta, LC3 lipidation, TEM); format: cell-based, human; conditions: for number of autophagic vesicles: TEM
Description: FIG. 24. […] (b) Immunoblot analysis of LC3 lipidation. […] (d) Expression analysis of lysosomal and autophagy genes in HeLa cells treated with MK2206. Gene expression was normalized relative to the housekeeping gene, GAPDH. The dashed line indicates relative gene expression in untreated cells. […] Scale bar, 10 μm (a), 50 nm (c) and 20 μm (f).
Control (Coriell Institute, USA) and JNCL fibroblasts (Gaslini Institute, Italy) were grown in DMEM (1:1, HyClone) supplemented with 10% heat-inactivated fetal bovine serum (FBS, Atlanta Biologicals), 2 mM L-glutamine, 100 U/ml penicillin and […] streptomycin (Invitrogen). HeLa cells were incubated for 2 h with LY294002 ([…], Cell Signaling), Torin 1 (300 nM, Cayman Chemical) or for 24 h with trehalose (100 mM, Sigma), rapamycin (300 nM, Sigma), MK2206 (1 μM, Selleckchem), U0126 ([…], Tocris) and dialyzed serum (GE Healthcare Life Sciences) for 30 min.
For immunofluorescence assay, cells were grown on coverslips in 24-well plates. After the treatment, cells were washed with PBS and fixed with methanol for 10 min. Cells were then blocked with blocking reagent (0.1% saponin, 10% bovine serum in PBS) for 1 h and incubated with appropriate primary antibody(s) (1:100) for 3 h at room temperature. After three washes with PBS, the cells were incubated with appropriate secondary antibodies (1:500) for 1 h at room temperature. Coverslips were then mounted with vectashield containing 4,6-diamidino-2-phenylindole (H-1200) for imaging via confocal microscopy.
Brain tissue and cultured cells were collected and lysed in RIPA buffer (50 mM Tris-HCl, ph 7.4, 1% NP40, 0.5% Na-deoxycholate, 0.1% SDS, 150 mM NaCl, 2 mM EDTA and 50 mM NaF) including a cocktail of protease (Roche) and phosphatase (SIGMA) inhibitors. Protein concentrations were measured with the bicinchoninic acid protein assay kit (Pierce, Rockford, Ill.), using bovine serum albumin as standard. Lysates were separated via SDS-polyacrylamide gel electrophoresis (PAGE) and then transferred to nitrocellulose membranes. Blots were incubated in blocking buffer (5%, w/v, dried skimmed milk in Tris-buffered saline, pH 7.4 and 0.2% Tween 20, TBST) followed by overnight incubation with appropriate antibodies diluted in blocking buffer (5% dry milk). Western blot images were acquired by LAS 4000 (GE Healthcare) and quantified using ImageJ. Images have been cropped for presentation.

Cl.NC1(c2ccc(-c3nc4ccn5c(=O)[nH]nc5c4cc3-c3ccccc3)cc2)CCC1 [MK2206, 8-[4-(1-aminocyclobutyl)phenyl]-9-phenyl-1,2,4-triazolo[3,4-f][1,6]naphthyridin-3(2H)-one]
TFEB nuclear translocation on kinase inhibitors (TFEB; confocal microscopy and subcellular fractionation): nuclear translocation of TFEB
expression of lysosomal and autophagy genes in brain ([1]; Cln3^Δex7-8 mice, MK2206 120 mg/kg intraperitoneal): upregulation of lysosomal and autophagy genes
number of LC3 puncta (HeLa cells): increased number of LC3 puncta
number of autophagic vesicles (HeLa cells): increased number of autophagic vesicles
LC3-II protein levels (HeLa cells; immunoblot): increased LC3-II protein levels

OC[C@H]1O[C@H](O[C@H]2O[C@H](CO)[C@@H](O)[C@H](O)[C@H]2O)[C@H](O)[C@@H](O)[C@@H]1O [trehalose, a-D-glucopyranosyl a-D-glucopyranoside]
cells with nuclear TFEB (TFEB; trehalose within 24 h, untreated 20%): > 80%
expression of lysosomal and autophagy genes in brain ([1]; WT and Cln3^Δex7-8 mice, oral trehalose): upregulation of lysosomal and autophagy genes
number of LC3 puncta (HeLa cells): increased number of puncta
number of autophagic vesicles (HeLa cells): increased number of autophagic vesicles
